According to patent US20230086703A1, “N-(4-(5-chloropyridin-3-yl)phenyl)-2-(2-(cyclopropanesulfonamido)pyrimidin-4-yl) butanamide derivatives and related compounds as human CTPS1 inhibitors for the treatment of proliferative diseases” (Step Pharma S.A.S., priority 2019, published 2023):

The molecules below were run against T1, human CTPS1 (Homo sapiens, UniProt P17812) (assay: Human CTPS1 enzyme inhibition, ADP-Glo Max assay). Conditions: ADP-Glo Max assay; Table 10; read-out: Human CTPS1 Enzyme Inhibition, IC50 grouped by potency range (CTPS1).
T1 construct: FLAG (with GG linker); His8 (with GG linker); purchased Proteros biostructures GmbH
T1 sequence (P17812 1-591): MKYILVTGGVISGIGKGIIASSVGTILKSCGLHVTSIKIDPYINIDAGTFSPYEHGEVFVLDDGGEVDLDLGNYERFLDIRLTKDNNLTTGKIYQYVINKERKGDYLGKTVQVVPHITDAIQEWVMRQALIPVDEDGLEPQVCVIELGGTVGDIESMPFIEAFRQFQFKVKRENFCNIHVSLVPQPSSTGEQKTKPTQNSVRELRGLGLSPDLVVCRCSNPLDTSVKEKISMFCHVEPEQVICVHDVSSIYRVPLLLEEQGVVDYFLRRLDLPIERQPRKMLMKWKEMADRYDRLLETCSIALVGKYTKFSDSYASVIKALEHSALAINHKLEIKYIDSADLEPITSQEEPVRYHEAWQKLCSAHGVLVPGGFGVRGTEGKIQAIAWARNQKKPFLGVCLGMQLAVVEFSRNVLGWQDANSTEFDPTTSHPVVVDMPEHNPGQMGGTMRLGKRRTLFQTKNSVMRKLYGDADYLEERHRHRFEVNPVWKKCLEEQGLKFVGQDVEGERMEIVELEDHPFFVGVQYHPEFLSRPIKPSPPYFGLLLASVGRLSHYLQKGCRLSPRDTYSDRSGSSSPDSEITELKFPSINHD
Format: biochemical
Method in brief: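 Read-out is ADP-Glo Max luminescence: residual ATP depleted (60 min), then produced ADP converted back to ATP for luciferase detection (60 min). Beforehand, protein and compound were mixed for 10 min at 25 °C in Tris buffer pH 8.0 with MgCl2, Tween-20 and 2 mM L-cysteine. Results expressed as percentage inhibition per concentration.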

| IC50 [nM] | Structure (SMILES) |
| --- | --- |
| < 100 | CC(C)(C(=O)Nc1ncc(-c2cncc(C#N)c2)cc1F)c1csc(NS(=O)(=O)C2CC2)n1 [T228, N-(5′-cyano-5-fluoro-[3,3′-bipyridin]-6-yl)-2-(2-(cyclopropanesulfonamido)thiazol-4-yl)-2-methylpropanamide] |
| < 100 | CC(C)(C(=O)Nc1ncc(-c2cncc(Cl)c2)cc1F)c1csc(NS(=O)(=O)C2CC2)n1 [T229, N-(5′-chloro-5-fluoro-[3,3′-bipyridin]-6-yl)-2-(2-(cyclopropanesulfonamido)thiazol-4-yl)-2-methylpropanamide] |
| < 100 | CC(C)(C(=O)Nc1ncc(-c2cncc(F)c2)cc1F)c1csc(NS(=O)(=O)C2CC2)n1 [T230, 2-(2-(cyclopropanesulfonamido)thiazol-4-yl)-N-(5,5′-difluoro-[3,3′-bipyridin]-6-yl)-2-methylpropanamide] |
| 1000 to 10000 | Cc1cc(Cl)cc(-c2ccc(NC(=O)C(C)(C)c3csc(NS(=O)(=O)C4CC4)n3)nc2)c1 [T231, N-(5-(3-chloro-5-methylphenyl)pyridin-2-yl)-2-(2-(cyclopropanesulfonamido)thiazol-4-yl)-2-methylpropanamide] |
| 100 to 1000 | COc1cccc(-c2ccc(NC(=O)C(C)(C)c3csc(NS(=O)(=O)C4CC4)n3)nc2)c1 [T232, 2-(2-(cyclopropanesulfonamido)thiazol-4-yl)-N-(5-(3-methoxyphenyl)pyridin-2-yl)-2-methylpropanamide] |
| 1000 to 10000 | COc1cc(F)cc(-c2ccc(NC(=O)C(C)(C)c3csc(NS(=O)(=O)C4CC4)n3)nc2)c1 [T233, 2-(2-(cyclopropanesulfonamido)thiazol-4-yl)-N-(5-(3-fluoro-5-methoxyphenyl)pyridin-2-yl)-2-methylpropanamide] |
| 1000 to 10000 | COc1cc(OC)cc(-c2ccc(NC(=O)C(C)(C)c3csc(NS(=O)(=O)C4CC4)n3)nc2)c1 [T234, 2-(2-(cyclopropanesulfonamido)thiazol-4-yl)-N-(5-(3,5-dimethoxyphenyl)pyridin-2-yl)-2-methylpropanamide] |
| 100 to 1000 | CC(C)(C(=O)Nc1ccc(-c2cccc(C(F)(F)F)c2)cn1)c1csc(NS(=O)(=O)C2CC2)n1 [T235, 2-(2-(cyclopropanesulfonamido)thiazol-4-yl)-2-methyl-N-(5-(3-(trifluoromethyl)phenyl)pyridin-2-yl)propanamide] |
| 100 to 1000 | CC(C)(C(=O)Nc1ccc(-c2cccc(OC(F)(F)F)c2)cn1)c1csc(NS(=O)(=O)C2CC2)n1 [T236, 2-(2-(cyclopropanesulfonamido)thiazol-4-yl)-2-methyl-N-(5-(3-(trifluoromethoxy)phenyl)pyridin-2-yl)propanamide] |
| 1000 to 10000 | CC(C)(O)c1cccc(-c2ccc(NC(=O)C(C)(C)c3csc(NS(=O)(=O)C4CC4)n3)nc2)c1 [T237, 2-(2-(cyclopropanesulfonamido)thiazol-4-yl)-N-(5-(3-(2-hydroxypropan-2-yl)phenyl)pyridin-2-yl)-2-methylpropanamide] |
| 1000 to 10000 | CC(C)(C(=O)Nc1ccc(-c2cccc(N3CCOCC3)c2)cn1)c1csc(NS(=O)(=O)C2CC2)n1 [T238, 2-(2-(cyclopropanesulfonamido)thiazol-4-yl)-2-methyl-N-(5-(3-morpholinophenyl)pyridin-2-yl)propanamide] |
| 100 to 1000 | CC(C)(C(=O)Nc1ccc(-c2ccccc2)nc1)c1csc(NS(=O)(=O)C2CC2)n1 [T239, 2-(2-(cyclopropanesulfonamido)thiazol-4-yl)-2-methyl-N-(6-phenylpyridin-3-yl)propanamide] |
| 100 to 1000 | CC(C)(C(=O)Nc1ccc(-c2cccnc2F)cc1)c1csc(NS(=O)(=O)C2CC2)n1 [T240, 2-(2-(cyclopropanesulfonamido)thiazol-4-yl)-N-(4-(2-fluoropyridin-3-yl)phenyl)-2-methylpropanamide] |
| 100 to 1000 | CC(C)(C(=O)Nc1ccc(-c2cncc(CO)c2)cc1)c1csc(NS(=O)(=O)C2CC2)n1 [T241, 2-(2-(cyclopropanesulfonamido)thiazol-4-yl)-N-(4-(5-(hydroxymethyl)pyridin-3-yl)phenyl)-2-methylpropanamide] |
| 1000 to 10000 | COc1ncc(-c2ccc(NC(=O)Cc3csc(NS(=O)(=O)C4CC4)n3)cc2)cn1 [T242, 2-(2-(cyclopropanesulfonamido)thiazol-4-yl)-N-(4-(2-methoxypyrimidin-5-yl)phenyl)acetamide] |
| 1000 to 10000 | CC(C)(C)c1ccc(-c2ccc(NC(=O)Cc3csc(NS(=O)(=O)C4CC4)n3)cc2)cc1 [T243, N-(4′-(tert-butyl)-[1,1′-biphenyl]-4-yl)-2-(2-(cyclopropanesulfonamido)thiazol-4-yl)acetamide] |

| IC50 [nM] | Structure (SMILES) |
| --- | --- |
| 100 to 1000 | COc1ccccc1-c1ccc(NC(=O)Cc2csc(NS(=O)(=O)C3CC3)n2)cc1 [T246, 2-(2-(cyclopropanesulfonamido)thiazol-4-yl)-N-(2′-methoxy-[1,1′-biphenyl]-4-yl)acetamide] |
| 100 to 1000 | O=C(Cc1csc(NS(=O)(=O)C2CC2)n1)Nc1ccc(-c2cncnc2)cc1 [T247, 2-(2-(cyclopropanesulfonamido)thiazol-4-yl)-N-(4-(pyrimidin-5-yl)phenyl)acetamide] |
| 1000 to 10000 | CC(C)(C(=O)Nc1ccc(-c2cccnc2C(F)(F)F)cc1)c1csc(NS(=O)(=O)C2CC2)n1 [T248, 2-(2-(cyclopropanesulfonamido)thiazol-4-yl)-2-methyl-N-(4-(2-(trifluoromethyl)pyridin-3-yl)phenyl)propanamide] |
| < 100 | Cc1cncc(-c2ccc(NC(=O)C(C)(C)c3csc(NS(=O)(=O)C4CC4)n3)nc2)c1 [T249, 2-(2-(cyclopropanesulfonamido)thiazol-4-yl)-2-methyl-N-(5′-methyl-[3,3′-bipyridin]-6-yl)propanamide] |
| 1000 to 10000 | COc1nccc(C)c1-c1ccc(NC(=O)C(C)(C)c2csc(NS(=O)(=O)C3CC3)n2)cc1 [T250, 2-(2-(cyclopropanesulfonamido)thiazol-4-yl)-N-(4-(2-methoxy-4-methylpyridin-3-yl)phenyl)-2-methylpropanamide] |
| 1000 to 10000 | COc1ncc(-c2ccc(NC(=O)C(C)(C)c3csc(NS(=O)(=O)C4CC4)n3)cc2)cc1C [T251, 2-(2-(cyclopropanesulfonamido)thiazol-4-yl)-N-(4-(6-methoxy-5-methylpyridin-3-yl)phenyl)-2-methylpropanamide] |
| < 100 | CC(C)(C(=O)Nc1ccc(-c2cncc(Cl)c2)cc1)c1csc(NS(=O)(=O)C2CC2)n1 [T252, N-(4-(5-chloropyridin-3-yl)phenyl)-2-(2-(cyclopropanesulfonamido)thiazol-4-yl)-2-methylpropanamide] |
| < 100 | CC(C)(C(=O)Nc1ccc(-c2cncc(F)c2)cc1)c1csc(NS(=O)(=O)C2CC2)n1 [T253, 2-(2-(cyclopropanesulfonamido)thiazol-4-yl)-N-(4-(5-fluoropyridin-3-yl)phenyl)-2-methylpropanamide] |
| 100 to 1000 | Cc1ccncc1-c1ccc(NC(=O)C(C)(C)c2csc(NS(=O)(=O)C3CC3)n2)cc1 [T254, 2-(2-(cyclopropanesulfonamido)thiazol-4-yl)-2-methyl-N-(4-(4-methylpyridin-3-yl)phenyl)propanamide] |
| 1000 to 10000 | CC(C)(C(=O)Nc1ccc(-c2cnccc2C(F)(F)F)cc1)c1csc(NS(=O)(=O)C2CC2)n1 [T255, 2-(2-(cyclopropanesulfonamido)thiazol-4-yl)-2-methyl-N-(4-(4-(trifluoromethyl)pyridin-3-yl)phenyl)propanamide] |
| < 100 | COc1cc(-c2cncc(Cl)c2)ccc1NC(=O)C(C)(C)c1csc(NS(=O)(=O)C2CC2)n1 [T256, N-(4-(5-chloropyridin-3-yl)-2-methoxyphenyl)-2-(2-(cyclopropanesulfonamido)thiazol-4-yl)-2-methylpropanamide] |
| 100 to 1000 | CN(C)c1cncc(-c2ccc(NC(=O)C(C)(C)c3csc(NS(=O)(=O)C4CC4)n3)cc2)c1 [T257, 2-(2-(cyclopropanesulfonamido)thiazol-4-yl)-N-(4-(5-(dimethylamino)pyridin-3-yl)phenyl)-2-methylpropanamide] |
| 100 to 1000 | COc1cc(-c2cncc(C)c2)ccc1NC(=O)C(C)(C)c1csc(NS(=O)(=O)C2CC2)n1 [T258, 2-(2-(cyclopropanesulfonamido)thiazol-4-yl)-N-(2-methoxy-4-(5-methylpyridin-3-yl)phenyl)-2-methylpropanamide] |
| < 100 | COc1cc(-c2cncc(C(F)(F)F)c2)ccc1NC(=O)C(C)(C)c1csc(NS(=O)(=O)C2CC2)n1 [T259, 2-(2-(cyclopropanesulfonamido)thiazol-4-yl)-N-(2-methoxy-4-(5-(trifluoromethyl)pyridin-3-yl)phenyl)-2-methylpropanamide] |
| 1000 to 10000 | COc1ccc(-c2ccc(NC(=O)Cc3csc(NS(=O)(=O)C4CC4)n3)cc2)cn1 [T260, 2-(2-(cyclopropanesulfonamido)thiazol-4-yl)-N-(4-(6-methoxypyridin-3-yl)phenyl)acetamide] |
| < 100 | CC(C)(C(=O)Nc1ccc(-c2cncc(F)c2)cn1)c1csc(NS(=O)(=O)C2CC2)n1 [T261, 2-(2-(cyclopropanesulfonamido)thiazol-4-yl)-N-(5′-fluoro-[3,3′-bipyridin]-6-yl)-2-methylpropanamide] |
